The results in this text go back to US12466821B2 (Novartis AG, priority 2018, dated 2025).

Assay [1] addresses human CMV DNA polymerase UL54 (Human cytomegalovirus (strain AD169) (HHV-5) (Human herpesvirus 5), UniProt P08546). The assay can be described thus: CMV polymerase biochemical assay (molecular beacon-based). The method, then:
(§1) Both human CMV DNA polymerase UL54 and human HSV DNA polymerase UL30 were produced as N-terminal MBP fusion of the full length, wild type recombinant proteins in order to enhance soluble expression in insect cell expression system. The proteins were expressed in sf9 insect cells via baculovirus transduction and cells were harvested after 48 hours. The soluble proteins were purified using the standard Ni-IMAC purification strategy via the N-terminal hexa-Histidine tag, followed by heparin affinity chromatography. Both of the final MBP fusion proteins were more than 90% pure and the yield of UL54 was up to 1.8 mg per liter culture while UL30 was up to 15 mg per liter culture. All purification steps were performed on ice, with buffers chilled on ice and FPLC fraction collectors set at 6° C. […] UL30 protein was stored in buffer containing 20 mM HEPES, pH7.0, 420 mM NaCl, 20% glycerol, 6 mM Imidazole, and 0.8 mM DTT at−80° C.
(§2) DNA polymerase activity was measured using a molecular beacon-based assay, as described in Ma et. al.
(§3) 100 pM CMV polymerase or 625 pM HSV polymerase was added to a buffer containing 20 mM Tris, pH=7.5, 100 mM NaCl, 10 mM MgCl2, 0.01% Tween-20, 0.5 mM EDTA, 10% Sucrose and 1 mM DTT. The inhibitor was pre-incubated with the polymerase for 30 minutes at room temperature. Reactions were initiated by the addition of a mixture containing 1.25 uM dATP, 1.25 uM dCTP, 1.25 uM dTTP, 1.25 uM dGTP, 200 nM Primer B (5′-GAC GGG AAG-3′5′-GAC GGG AAG-3′) and 100 nM molecular beacon (5′-5,6-FAM-CCTCTCCGTGTCTTGTACTTCCCGTCAGAGAGG-BHQ1-3′). For human CMV polymerase the reactions were incubated for 60 minutes at room temperature. For HSV polymerase the reactions were incubated for 20 minutes at room temperature. The reactions were then read on a Perkin-Elmer EnVision 2101 reader (fluorescence) using an excitation of 480 nm and emission of 535 nm. 1050s were determined using an internal Novartis software (Helios).
as §3, with “nm.” for “nm. 1050s were determined using an internal Novartis software (Helios).”

Assay [2] concerns the target human HSV DNA polymerase UL30 (Human herpesvirus 1 (strain 17) (HHV-1) (Human herpes simplex virus 1), UniProt P04293). The assay can be described thus: HSV polymerase biochemical assay (molecular beacon-based). As for the experimental part:
as §1, §2, §3
as §3, with “nm.” for “nm. 1050s were determined using an internal Novartis software (Helios).”

Assay [3] deals with Luciferase-encoding HCMV, AD169 strain. The assay can be described thus: CMV Luciferase assay (cellular herpesvirus replication). In kind it is cell-based. To be noted: Human betaherpesvirus 5, AD169, read-out: CMV-Luc Cellular EC50. The gist of the method: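 Reporter HCMV AD169 with luciferase driven by late pp28 promoter, so signal requires viral DNA replication; NN-NHDF fibroblasts in 2% FBS medium, compound (0.0159–50 or 0.00318–10 μM, 0.5% DMSO) added 1 h before infection at MOI 1. Luminescence read 72 hpi; EC50 from 4-parameter fit of control-normalized %.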

In general, IC50 refers to the point on the concentration scale where inhibition reaches its midpoint. By EC50 is commonly meant the midpoint of the concentration-response curve. On to `CC(=O)N(C)CCN1CCn2c(ccc(C(=O)NCc3ccc(Cl)cc3)c2=O)C1=O` [Example 61], for which the values for the IC50 in assay [1] and in assay [2] were 364 nM and 5560 nM, respectively. Further, the EC50 in assay [3] worked out at 6340 nM.
Turning to `CC1Cn2c(ccc(C(=O)NCc3ccc(Cl)cc3)c2=O)C(=O)N1CCN(C)S(C)(=O)=O` (stereo not drawn) [Example 92, N-(4-chlorobenzyl)-3-methyl-2-(2-(N-methylmethylsulfonamido)ethyl)-1,6-dioxo-2,3,4,6-tetrahydro-1H-pyrido[1,2-a]pyrazine-7-carboxamide], the figures for the half-inhibitory concentration (IC50) in assay [1] and in assay [2] were 312 nM and 1340 nM, respectively. Further, the concentration giving a half-maximal response (EC50) in assay [3] was 2980 nM.
On to `N#Cc1ccc(CNC(=O)c2ccc3n(c2=O)CCN(CC2(S(=O)(=O)C4CC4(F)F)CC2)C3=O)cc1Cl` (stereo not drawn) [Example 98-3], for which the IC50 was 1.7 nM in assay [1] and 200 nM in assay [2]. The half-maximal effective concentration (EC50) in assay [3] came out at 102 nM.
In the case of `O=C(NCc1ccc(Cl)cc1)c1ccc2n(c1=O)CCN(CC1(S(=O)(=O)C3CCC3)CC1)C2=O` [Example 78, N-(4-chlorobenzyl)-2-((1-(cyclobutylsulfonyl)cyclopropyl)methyl)-1,6-dioxo-2,3,4,6-tetrahydro-1H-pyrido[1,2-a]pyrazine-7-carboxamide], the IC50 in assay [1] was 1 nM; in assay [2], 30 nM. Also, the EC50 in assay [3] is 15.7 nM.
Regarding `CNc1cc(CNC(=O)c2ccc3n(c2=O)CCN(CC2(S(=O)(=O)C4CC4)CC2)C3=O)ccc1C#N` [Example 212, N-(4-cyano-3-(methylamino)benzyl)-2-((1-(cyclopropylsulfonyl)cyclopropyl)methyl)-1,6-dioxo-1,3,4,6-tetrahydro-2H-pyrido[1,2-a]pyrazine-7-carboxamide], the IC50 in assay [1] was 0.6 nM; in assay [2] it was 51.4 nM. Moreover, in assay [3], the concentration giving a half-maximal response (EC50) was determined as 315 nM.
In the same order, the values of `N#Cc1ccc(CNC(=O)c2ccc3n(c2=O)CCN(CC2(S(=O)(=O)C4CCCC4)CC2)C3=O)cc1F` [Example 21] are 0.8 nM, 35.4 nM and 58 nM.
The corresponding values for `CC(C)(C#N)S(=O)(=O)C1(CN2CCn3c(ccc(C(=O)NCc4ccc(Cl)cc4)c3=O)C2=O)CC1` [Example 185, N-(4-chlorobenzyl)-2-((1-((2-cyanopropan-2-yl)sulfonyl)cyclopropyl)methyl)-1,6-dioxo-1,3,4,6-tetrahydro-2H-pyrido[1,2-a]pyrazine-7-carboxamide] are 1.2 nM, 29.5 nM and 18.9 nM.
`O=C(NCc1ccc(Cl)cc1)c1ccc2n(c1=O)CCN(CC1(S(=O)(=O)C3CNC3)CC1)C2=O` [Example 19]: the figures for the IC50 in assay [1] and in assay [2] were 3.9 nM and 149 nM, respectively. In addition, the EC50 in assay [3] is 538 nM.
The corresponding values for `C[S+]([O-])C1(CN2CCn3c(ccc(C(=O)NCc4ccc(C#N)cc4)c3=O)C2=O)CC1` (stereo not drawn) [Example 68-1, N-(4-cyanobenzyl)-2-((1-(methylsulfinyl)cyclopropyl)methyl)-1,6-dioxo-2,3,4,6-tetrahydro-1H-pyrido[1,2-a]pyrazine-7-carboxamide] are 146 nM, 3800 nM and 3170 nM.
In the same order, the values of `O=C(NCc1ccc(F)c(F)c1)c1ccc2n(c1=O)CCN(CC1(S(=O)(=O)C3CC3)CC1)C2=O` [Example 3-3] are 7.9 nM, 149 nM and 64 nM.
In the same order, the values of `CN(CCN1CCn2c(ccc(C(=O)NCc3ccc(Cl)cc3)c2=O)C1=O)S(C)(=O)=O` [Example 58, N-(4-chlorobenzyl)-2-(2-(N-methylmethylsulfonamido)ethyl)-1,6-dioxo-2,3,4,6-tetrahydro-1H-pyrido[1,2-a]pyrazine-7-carboxamide] are 75.6 nM, 846 nM and 883 nM.
For the compound `Cc1cc(C(=O)NCc2ccc(Cl)cc2)c(=O)n2c1C(=O)N(CCN1CCCS1(=O)=O)CC2` [Example 66-1], the IC50 in assay [1] amounted to 37.5 nM; in assay [2] it was 125 nM. The EC50 in assay [3] came to 417 nM.
Regarding `C[C@@H](NC(=O)c1ccc2n(c1=O)CCN(CC1(S(C)(=O)=O)CC1)C2=O)c1ccc(Cl)cc1` [Example 45], the IC50 in assay [1] was found to be 458 nM; in assay [2], 130000 nM. Further, the 50% effective concentration (EC50) in assay [3] is 10000 nM.
In the same order, the values of `CC1(CS(=O)(=O)C2(CN3CCn4c(ccc(C(=O)NCc5ccc(Cl)cc5)c4=O)C3=O)CC2)COC1` [Example 103-1] are 9.4 nM, 109 nM and 237 nM.
In the same order, the values of `N#Cc1ccc(CNC(=O)c2ccc3n(c2=O)CCN(CC2(S(=O)(=O)C4(C(F)(F)F)CC4)CC2)C3=O)cc1F` [Example 97-2] are 3.2 nM, 90.8 nM and 189 nM.
As to `N#Cc1ccc(CNC(=O)c2ccc3n(c2=O)CCN(CC2(S(=O)(=O)C4CC4)CC2)C3=O)cc1F` [Example 3-1], the IC50 in assay [1] came out at 0.8 nM; in assay [2] it was 38.1 nM. The EC50 in assay [3] was determined as 17.7 nM.
The corresponding values for `Cc1cc(C(=O)NCc2ccc(C#N)c(F)c2)c(=O)n2c1C(=O)N(CC1(S(C)(=O)=O)CC1)CC2` [Example 86-2] are 4.6 nM, 276 nM and 226 nM.
For the compound `CN(C(C)(C)C)S(=O)(=O)C1(CN2CCn3c(ccc(C(=O)NCc4ccc(Cl)cc4)c3=O)C2=O)CC1` [Example 74-1], the results for the IC50 in assay [1] and in assay [2] were 0.4 nM and 22.7 nM, respectively. In addition, the half-maximal effective concentration (EC50) in assay [3] amounted to 13.7 nM.
In the same order, the values of `N#Cc1ccc(CNC(=O)c2ccc3n(c2=O)CCN(CC2(S(=O)(=O)CC4(C#N)CC4)CC2)C3=O)cc1F` [Example 112] are 2.2 nM, 44.1 nM and 187 nM.
As for `CC(C)(C(=O)NS(C)(=O)=O)S(=O)(=O)C1(CN2CCn3c(ccc(C(=O)NCc4ccc(Cl)cc4)c3=O)C2=O)CC1` [Example 176, N-(4-chlorobenzyl)-2-((1-((2-methyl-1-(methylsulfonamido)-1-oxopropan-2-yl)sulfonyl)cyclopropyl)methyl)-1,6-dioxo-1,3,4,6-tetrahydro-2H-pyrido[1,2-a]pyrazine-7-carboxamide], the half-inhibitory concentration (IC50) in assay [1] was 4.6 nM; in assay [2] it was 61.9 nM. Moreover, the EC50 in assay [3] turned out to be 7230 nM.
The corresponding values for `N#Cc1ccc(CNC(=O)c2ccc3n(c2=O)CCN(CC2(S(=O)(=O)C4CC(F)(F)C4)CC2)C3=O)cc1` [Example 83, N-(4-cyanobenzyl)-2-((1-((3,3-difluorocyclobutyl)sulfonyl)cyclopropyl)methyl)-1,6-dioxo-2,3,4,6-tetrahydro-1H-pyrido[1,2-a]pyrazine-7-carboxamide] are 4.4 nM, 101 nM and 146 nM.
The corresponding values for `N#Cc1ccc(CNC(=O)c2cc(F)c3n(c2=O)CCN(CC2(S(=O)(=O)C4CC4)CC2)C3=O)cc1` [Example 161] are 1.5 nM, 57.1 nM and 59.9 nM.
With `CS(=O)(=O)C1(CN2CCn3c(ccc(C(=O)NCc4ccc(F)cc4)c3=O)C2=O)CC1` [Example 47], the results for the half-inhibitory concentration (IC50) in assay [1] and in assay [2] were 20 nM and 393 nM, respectively. In addition, the EC50 in assay [3] was determined as 783 nM.
Regarding `Cc1cc(C(=O)NCc2ccc(Cl)cc2)c(=O)n2c1C(=O)N(CC1(N(C)S(C)(=O)=O)CC1)CC2` [Example 149], the half-maximal inhibitory concentration (IC50) in assay [1] came out at 112 nM; in assay [2], 2200 nM. In assay [3], the EC50 turned out to be 7910 nM.
